Data: patent US8293781B2, “Indole derivatives having cPLA2 inhibiting activity and applications and production methods of the same” (Daiichi Sankyo Company, Limited, priority 2007, dated 2012)
Where a name gives a salt, the structure may show the parent alone.

Legend:
[1] = system: TPA-induced mouse dermatitis model; assay: TPA-induced mouse dermatitis model (ear thickness); format: in vivo; conditions: 50 mg/kg orally 30 minutes before TPA, 6 hours after TPA, C57BL/6 mice
Protocol: Phorbol ester (TPA) was applied to the ear to elicite acute inflammation having ear edema as a main symptom. In the present test model, it is known that arachidonic acid metabolites, constituting various lipid mediators, are involved in inflammation. By this Experiment, it is possible to evaluate the anti-inflammatory action in vivo of anti-inflammatory drugs acting on the arachidonic acid cascade.
The Experiment was performed with reference to the method of Chang et al. (see Chang J., Eur J Pharmacol 142: 197, 1987). That is, the ear of female C57BL/6 mice (Charles River Japan) were painted with 20 μl of TPA in an acetone solution (concentration 50 μg/ml) to induce dermatitis at the ear. The ear thicknesses before application of TPA and 6 hours after application of TPA were measured using a dial gauge and the increase in ear thickness caused by inflammation was calculated. The test compound or the 0.5% hydroxypropyl cellulose solution as vehicle was administered orally to the mice 30 minutes before application of TPA. Note that the number of mice used in the test was made six per group.
Based on the measurement value, the action of each test compound in suppressing the increase in ear thickness due to application of TPA was evaluated.

[2] = system: PGE2 production in mouse peritoneal exudate cells; assay: LPS-induced PGE2 production system using mouse peritoneal exudate cells; format: cell-based; conditions: LPS 10 μg/ml, 6 hours
Protocol: For evaluation of the PGE2 production inhibiting activity, the lipopolysaccharide (LPS)-induced PGE2 production system using mouse peritoneal exudate cells with reference to the method of Kim et al. (see Kim, Y K et al., Biol Pharm Bull 25: 472, 2002) was used. That is, 2 ml of thioglycolate solution (made by Sigma, Brewer's Thioglycorate medium) per mice were intraperitoneally administered to 8-week old female C3H/HeN mice (Charles River Japan). After 4 days, a phosphate buffer saline (PBS) 5 ml was used to wash the abdominal cavity and the infiltrating cells were recovered. The recovered cells were suspended in a predetermined concentration in an RPMI1640 medium (Nacalai Tesque) containing 10% bovine fetal serum (BioWhittaker) and 10 μg/ml gentamycin (Invitrogen).
The infiltrating cell suspension 100 μl containing 2×10^5 cells per well was inoculated in a 96-well culture plate, then the test compound solution or solvent 50 μl was added. Under conditions of 5% CO2 and 37° C., this was precultured for 15 minutes, then LPS (made by Sigma: L-4524) solution 50 μl (final concentration of LPS of 10 μg/ml) was added, and the mixture was cultured for a further 6 hours. After the end of the culture, the culture supernatant was recovered and the PGE2 concentration in the supernatant was measured using an EIA kit (made by Amersham). Based on the measurement value, the test compound concentration suppressing 50% of the PGE2 production at the time of non-addition of a compound (IC50 value) was calculated.

[3] = system: PGD2 production in rat mast cell like cell line RBL-2H3; assay: Antigen-induced PGD2 production system using RBL-2H3 sensitized by DNP specific IgE; format: cell-based; conditions: 0.5 h, RBL-2H3, anti-DNP-IgE sensitized, antigen 10 μg/ml, 30 minutes
Protocol: To evaluate the PGD2 production inhibiting activity, the antigen-induced PGD2 production system using rat mast cell like cell line RBL-2H3 sensitized by a dinitrophenol (DNP) specific IgE with reference to the method of Yamashita et al. (see Yamashita, M. et al., Br J Pharmacol 129: 367, 2000) was used. That is, rat mast cell like cell line RBL-2H3 cells were suspended in a Dulbecco's modified Eagle's medium (Nacalai Tesque) containing 10% bovine fetal serum (BioWhittaker) and 10 μg/ml gentamycin (Invitrogen). The infiltrating cell suspension 200 μl containing 1×10^5 cells per well was inoculated to 96-well culture plate and cultured over night under conditions of 5% CO2 and 37° C. The culture supernatant was removed, then the suspension was cultured for 2 hours in the presence of an anti-DNP-IgE antibody (1 μg/ml) for 2 hours to sensitize it. After the sensitization, the supernatant was removed and the test compound solution or solvent was added. The resultant product was precultured for 30 minutes, then 10 μg/ml of antigen (DNP-human serum albumin conjugate) was added to elicite PGD2 production.
30 minutes after antigen stimulus, the culture supernatant was recovered and the amount of PGD2 in the supernatant was measured using an EIA kit (made by Cayman). Based on the measurement value, the test compound concentration (IC50 value) suppressing the amount of PGD2 production at the time of nonaddition of the compound by 50% was calculated.

[4] = system: Cys-LTs production in rat mast cell like cell line RBL-2H3; assay: Calcium ionophore-induced Cys-LTs production system using RBL-2H3; format: cell-based; conditions: 1 h, RBL-2H3, A23187 5 μM, one hour
Protocol: For the evaluation by LTB4 and Cys-LTs production inhibiting activity, the calcium ionophore-induced LTB4 and Cys-LTs production system using the rat mast cell like cell line RBL-2H3 with reference to the method of Ishiwara et al. (see Ishiwara M. et al., J Pharmacol Exp Ther 307: 583, 2003) was used. That is, rat mast cell like cell line RBL-2H3 cells were suspended in Dulbecco's modified Eagle's medium (Nacalai Tesque) containing 10% bovine fetal serum (BioWhittaker) and 10 μg/ml gentamycin (Invitrogen). The infiltrating cell suspension 200 μl containing 1×10^5 cells per well was inoculated to 96-well culture plate and cultured over night under conditions of 5% CO2 and 37° C. The culture supernatant was removed, then the test compound solution or solvent 50 μl was added. After 30 minutes preculture, calcium ionophore (A23187) was added to a final concentration of 5 μM to induce leukotriene production.
One hour after calcium ionophore stimulus, the culture supernatant was recovered and the amounts of LTB4 and Cys-LTs in the supernatant were measured using an EIA kit (made by Amersham). Based on the measurement values, the test compound concentrations suppressing 50% of the mediator production at the time of non-addition of a compound (IC50 value) were calculated.

IC50 [2] | IC50 [4] | Compound | Suppression rate of increase in ear thickness [1] | IC50 [3]
540 nM | 4170 nM | O=C(O)CCc1ccc2c(c1)c(CCc1ccccc1)cn2-c1ccc(O)cc1 [Example 126, 3-[1-(4-hydroxyphenyl)-3-(2-phenylethyl)-1H-indol-5-yl]propanoic acid] | 27.6% | 1210 nM
280 nM | 890 nM | O=C(O)CCc1ccc2c(c1)c(CCc1ccccc1)cn2-c1ccc(F)cc1 [Example 187, 3-[1-(4-fluorophenyl)-3-(2-phenylethyl)-1H-indol-5-yl]propanoic acid] | 25.4% | 430 nM
850 nM | 1060 nM | O=C(O)CCc1ccc2c(c1)c(CCc1ccccc1)cn2-c1ccc(OC(F)F)cc1 [Example 190, 3-{1-[4-(difluoromethoxy)phenyl]-3-(2-phenylethyl)-1H-indol-5-yl}propanoic acid 2-amino-2-(hydroxymethyl)propane-1,3-diol salt (1:1)] | 27.6% | 1110 nM
1700 nM | 1260 nM | COCc1ccc(-n2cc(CCc3ccccc3)c3cc(CCC(=O)O)ccc32)cc1 [Example 217, 3-{1-[4-(methoxymethyl)phenyl]-3-(2-phenylethyl)-1H-indol-5-yl}propanoic acid 2-amino-2-(hydroxymethyl)propane-1,3-diol salt (1:1)] | 22.8% | 1120 nM
800 nM | 400 nM | O=C(O)CCc1ccc2c(c1)c(CCc1ccccc1)cn2-c1ccc(OCCO)cc1 [Example 229, 3-{1-[4-(2-hydroxyethoxy)phenyl]-3-(2-phenylethyl)-1H-indol-5-yl}propanoic acid 2-amino-2-(hydroxymethyl)propane-1,3-diol salt (1:1)] | 23.9% | 890 nM

Compound | IC50 [2] | IC50 [4] | Suppression rate of increase in ear thickness [1] | IC50 [3]
O=C(O)CCc1ccc2c(c1)c(CCc1ccccc1)cn2-c1ccc(Oc2ccccc2)cc1 [Example 231, 3-[1-(4-phenoxyphenyl)-3-(2-phenylethyl)-1H-indol-5-yl]propanoic acid 2-amino-2-(hydroxymethyl)propane-1,3-diol salt (1:1)] | 500 nM | 300 nM | 30.4% | 760 nM
